# US20170190671A1, “BIS(ARYL)CATECHOL DERIVATIVES AS HERBICIDES” (E I DU PONT DE NEMOURS AND COMPANY, priority 2014, published 2017)
# How the values were obtained:
# Type in all cases: in vivo
# [1] = system: kochia (Kochia scoparia); assay: Test A preemergence; details: Bassia scoparia, pre-emergence, 240 h; for pest or weed control at 31 g/ha: 31 g ai/ha, 0 to 100 scale (0 no effect, 100 complete control), read-out: Kochia plant response rating; for pest or weed control at 125 g/ha: 125 g ai/ha
# Outline: (§1)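 Visual injury scored 0–100 (100 = complete control) against untreated controls about 10 days after treatment in a greenhouse. Test chemicals, formulated with surfactant in non-phytotoxic solvent, were sprayed on soil preemergence or on 2-10 cm, one- to two-leaf plants postemergence.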
# [2] = system: Italian ryegrass (Lolium multiflorum); assay: Test A preemergence; details: Lolium multiflorum, pre-emergence, 240 h; for pest or weed control at 31 g/ha: 31 g ai/ha, 0 to 100 scale (0 no effect, 100 complete control), read-out: Ryegrass, Italian plant response rating; for pest or weed control at 125 g/ha: 125 g ai/ha
# Outline: as §1
# [3] = system: barnyardgrass (Echinochloa crus-galli); assay: Test A preemergence; details: Echinochloa crus-galli, pre-emergence, 240 h; for pest or weed control at 31 g/ha: 31 g ai/ha, 0 to 100 scale (0 no effect, 100 complete control), read-out: Barnyardgrass plant response rating; for pest or weed control at 125 g/ha: 125 g ai/ha
# Outline: as §1
# [4] = system: ragweed (common ragweed, Ambrosia elatior); assay: Test A preemergence; details: Ambrosia artemisiifolia, pre-emergence, 240 h; for pest or weed control at 31 g/ha: 31 g ai/ha, 0 to 100 scale (0 no effect, 100 complete control), read-out: Ragweed plant response rating; for pest or weed control at 125 g/ha: 125 g ai/ha
# Outline: as §1
# [5] = system: giant foxtail (Setaria faberii); assay: Test A preemergence; details: Setaria faberi, pre-emergence, 240 h; for pest or weed control at 31 g/ha: 31 g ai/ha, 0 to 100 scale (0 no effect, 100 complete control), read-out: Foxtail, Giant plant response rating; for pest or weed control at 125 g/ha: 125 g ai/ha
# Outline: as §1
# [6] = system: pigweed (Amaranthus retroflexus); assay: Test A preemergence; details: Amaranthus retroflexus, pre-emergence, 240 h; for pest or weed control at 31 g/ha: 31 g ai/ha, 0 to 100 scale (0 no effect, 100 complete control), read-out: Pigweed plant response rating; for pest or weed control at 125 g/ha: 125 g ai/ha
# Outline: as §1
# [7] = system: kochia (Kochia scoparia); assay: Test A postemergence; details: Bassia scoparia, post-emergence, 240 h, 0 to 100 scale, read-out: Plant response rating, Kochia; for pest or weed control at 31 g/ha: 31 g ai/ha; for pest or weed control at 125 g/ha: 125 g ai/ha
# Outline: as §1
# [8] = system: Italian ryegrass (Lolium multiflorum); assay: Test A postemergence; details: Lolium multiflorum, post-emergence, 240 h, 0 to 100 scale, read-out: Plant response rating, Ryegrass, Italian; for pest or weed control at 31 g/ha: 31 g ai/ha; for pest or weed control at 125 g/ha: 125 g ai/ha
# Outline: as §1
# [9] = system: barnyardgrass (Echinochloa crus-galli); assay: Test A postemergence; details: Echinochloa crus-galli, post-emergence, 240 h, 0 to 100 scale, read-out: Plant response rating, Barnyardgrass; for pest or weed control at 31 g/ha: 31 g ai/ha; for pest or weed control at 125 g/ha: 125 g ai/ha
# Outline: as §1
# [10] = system: galium (catchweed bedstraw, Galium aparine); assay: Test A postemergence; details: Galium, post-emergence, 240 h, 0 to 100 scale, read-out: Plant response rating, Galium; for pest or weed control at 31 g/ha: 31 g ai/ha; for pest or weed control at 125 g/ha: 125 g ai/ha
# Outline: as §1
# [11] = system: ragweed (common ragweed, Ambrosia elatior); assay: Test A postemergence; details: Ambrosia artemisiifolia, post-emergence, 240 h, 0 to 100 scale, read-out: Plant response rating, Ragweed; for pest or weed control at 31 g/ha: 31 g ai/ha; for pest or weed control at 125 g/ha: 125 g ai/ha
# Outline: as §1
# [12] = system: corn (Zea mays); assay: Test A postemergence; details: Zea mays, post-emergence, 240 h, 0 to 100 scale; for Corn plant response rating (crop injury, 0 = no effect, 100 = complete kill) at 31 g/ha: 31 g ai/ha; for Corn plant response rating (crop injury, 0 = no effect, 100 = complete kill) at 125 g/ha: 125 g ai/ha
# Outline: as §1
# [13] = system: wheat (Triticum aestivum); assay: Test A postemergence; details: Triticum aestivum, post-emergence, 240 h, 0 to 100 scale, read-out: Plant response rating, Wheat; for plant injury at 31 g/ha: 31 g ai/ha; for plant injury at 125 g/ha: 125 g ai/ha
# Outline: as §1
# [14] = system: blackgrass (Alopecurus myosuroides); assay: Test A postemergence; details: Alopecurus myosuroides, post-emergence, 240 h, 0 to 100 scale, read-out: Plant response rating, Blackgrass; for pest or weed control at 31 g/ha: 31 g ai/ha; for pest or weed control at 125 g/ha: 125 g ai/ha
# Outline: as §1
# [15] = system: giant foxtail (Setaria faberii); assay: Test A postemergence; details: Setaria faberi, post-emergence, 240 h, 0 to 100 scale, read-out: Plant response rating, Foxtail, Giant; for pest or weed control at 31 g/ha: 31 g ai/ha; for pest or weed control at 125 g/ha: 125 g ai/ha
# Outline: as §1
# [16] = system: pigweed (Amaranthus retroflexus); assay: Test A postemergence; details: Amaranthus retroflexus, post-emergence, 240 h, 0 to 100 scale, read-out: Plant response rating, Pigweed; for pest or weed control at 31 g/ha: 31 g ai/ha; for pest or weed control at 125 g/ha: 125 g ai/ha
# Outline: as §1
# [17] = system: barnyardgrass (Echinochloa crus-galli); assay: Test B flooded paddy; details: Echinochloa crus-galli, 336 h; 250 g ai/ha, Flood, 13 to 15 days, scale 0 (no effect) to 100 (complete control); read-out: Plant response rating, Barnyardgrass
# Outline: (§2)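 Visual injury ratings against untreated controls, taken 13 to 15 days after compound was added to paddy water standing 3 cm above the soil.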
# [18] = system: rice (Oryza sativa); assay: Test B flooded paddy; details: Oryza sativa, 336 h; 250 g ai/ha, Flood, 13 to 15 days, scale 0 (no effect) to 100 (complete control); read-out: Plant response rating, Rice
# Outline: as §2
# [19] = system: sedge, umbrella (small-flower umbrella sedge, Cyperus difformis); assay: Test B flooded paddy; details: Cyperus difformis, 336 h; 250 g ai/ha, Flood, 13 to 15 days, scale 0 (no effect) to 100 (complete control); read-out: Plant response rating, Sedge, Umbrella
# Outline: as §2
# [20] = system: ducksalad (Heteranthera limosa); assay: Test B flooded paddy; details: Heteranthera limosa, 336 h; 250 g ai/ha, Flood, 13 to 15 days, scale 0 (no effect) to 100 (complete control); read-out: Plant response rating, Ducksalad
# Outline: as §2
# [21] = 0 to 100 scale, read-out: Plant response rating, Kochia
# [22] = 0 to 100 scale, read-out: Plant response rating, Ryegrass, Italian
# [23] = 0 to 100 scale, read-out: Plant response rating, Barnyardgrass
# [24] = 0 to 100 scale, read-out: Plant response rating, Ragweed
# [25] = 0 to 100 scale, read-out: Plant response rating, Foxtail, Giant
# [26] = 0 to 100 scale, read-out: Plant response rating, Pigweed
smiles,measurement,setting,value
"FC(F)c1cnc(Oc2c(Br)cccc2Oc2ncc(Cl)cn2)s1 [Compound 10, 2-[3-bromo-2-[[5-(difluoromethyl)-2-thiazolyl]oxy]phenoxy]-5-chloropyrimidine]",pest or weed control at 31 g/ha,[1],0%
same,pest or weed control at 125 g/ha,[1]; [21],50%
same,pest or weed control at 31 g/ha,[2],0%
same,pest or weed control at 125 g/ha,[2]; [22],40%
same,pest or weed control at 31 g/ha,[3],0%
same,pest or weed control at 125 g/ha,[3]; [23],30%
same,pest or weed control at 31 g/ha,[4],0%
same,pest or weed control at 125 g/ha,[4]; [24],0%
same,pest or weed control at 31 g/ha,[5],40%
same,pest or weed control at 125 g/ha,[5]; [25],90%
same,pest or weed control at 31 g/ha,[6],90%
same,pest or weed control at 125 g/ha,[6]; [26],100%
same,pest or weed control at 31 g/ha,[7],20%
same,pest or weed control at 125 g/ha,[7],80%
same,pest or weed control at 31 g/ha,[8],0%
same,pest or weed control at 125 g/ha,[8],60%
same,pest or weed control at 31 g/ha,[9],0%
same,pest or weed control at 125 g/ha,[9],20%
same,pest or weed control at 31 g/ha,[10],50%
same,pest or weed control at 125 g/ha,[10],100%
same,pest or weed control at 31 g/ha,[11],0%
same,pest or weed control at 125 g/ha,[11],30%
same,"Corn plant response rating (crop injury, 0 = no effect, 100 = complete kill) at 31 g/ha",[12],0%
same,"Corn plant response rating (crop injury, 0 = no effect, 100 = complete kill) at 125 g/ha",[12],10%
same,plant injury at 31 g/ha,[13],0%
same,plant injury at 125 g/ha,[13],0%
same,pest or weed control at 31 g/ha,[14],10%
same,pest or weed control at 125 g/ha,[14],70%
same,pest or weed control at 31 g/ha,[15],0%
same,pest or weed control at 125 g/ha,[15],20%
same,pest or weed control at 31 g/ha,[16],90%
same,pest or weed control at 125 g/ha,[16],100%
same,pest or weed control at 250 g/ha,[17],0%
same,plant injury at 250 g/ha,[18],0%
same,pest or weed control at 250 g/ha,[19],0%
same,pest or weed control at 250 g/ha,[20],0%
N#Cc1cccc(Oc2ncc(Br)cn2)c1Oc1ccc(Cl)cn1 [Compound 11],pest or weed control at 31 g/ha,[1],10%
same,pest or weed control at 125 g/ha,[1]; [21],75%
same,pest or weed control at 500 g/ha,"[1]; 500 g ai/ha, 0 to 100 scale, read-out: Plant response rating, Kochia",100%
same,pest or weed control at 31 g/ha,[2],0%
same,pest or weed control at 125 g/ha,[2]; [22],10%
same,pest or weed control at 500 g/ha,"[2]; 500 g ai/ha, 0 to 100 scale, read-out: Plant response rating, Ryegrass, Italian",90%
same,pest or weed control at 31 g/ha,[3],0%
same,pest or weed control at 125 g/ha,[3]; [23],80%
same,pest or weed control at 500 g/ha,"[3]; 500 g ai/ha, 0 to 100 scale, read-out: Plant response rating, Barnyardgrass",100%
same,pest or weed control at 31 g/ha,[4],0%
same,pest or weed control at 125 g/ha,[4]; [24],0%
same,pest or weed control at 500 g/ha,"[4]; 500 g ai/ha, 0 to 100 scale, read-out: Plant response rating, Ragweed",10%
same,pest or weed control at 31 g/ha,[5],20%
same,pest or weed control at 125 g/ha,[5]; [25],100%
same,pest or weed control at 500 g/ha,"[5]; 500 g ai/ha, 0 to 100 scale, read-out: Plant response rating, Foxtail, Giant",100%
same,pest or weed control at 31 g/ha,[6],90%
same,pest or weed control at 125 g/ha,[6]; [26],100%
same,pest or weed control at 500 g/ha,"[6]; 500 g ai/ha, 0 to 100 scale, read-out: Plant response rating, Pigweed",100%
same,pest or weed control at 31 g/ha,[7],40%
same,pest or weed control at 125 g/ha,[7],95%
same,pest or weed control at 500 g/ha,[7]; 500 g ai/ha,100%
same,pest or weed control at 31 g/ha,[8],0%
same,pest or weed control at 125 g/ha,[8],25%
same,pest or weed control at 500 g/ha,[8]; 500 g ai/ha,90%
same,pest or weed control at 31 g/ha,[9],0%
same,pest or weed control at 125 g/ha,[9],80%
same,pest or weed control at 500 g/ha,[9]; 500 g ai/ha,100%
same,pest or weed control at 31 g/ha,[10],70%
same,pest or weed control at 125 g/ha,[10],100%
same,pest or weed control at 500 g/ha,[10]; 500 g ai/ha,100%
same,pest or weed control at 31 g/ha,[11],0%
same,pest or weed control at 125 g/ha,[11],10%
same,pest or weed control at 500 g/ha,[11]; 500 g ai/ha,10%
same,"Corn plant response rating (crop injury, 0 = no effect, 100 = complete kill) at 31 g/ha",[12],10%
same,"Corn plant response rating (crop injury, 0 = no effect, 100 = complete kill) at 125 g/ha",[12],30%
same,"Corn plant response rating (crop injury, 0 = no effect, 100 = complete kill) at 500 g/ha",[12]; 500 g ai/ha,100%
same,plant injury at 31 g/ha,[13],20%
same,plant injury at 125 g/ha,[13],50%
same,plant injury at 500 g/ha,[13]; 500 g ai/ha,90%
same,pest or weed control at 31 g/ha,[14],10%
same,pest or weed control at 125 g/ha,[14],90%
same,pest or weed control at 500 g/ha,[14]; 500 g ai/ha,100%
same,pest or weed control at 31 g/ha,[15],0%
same,pest or weed control at 125 g/ha,[15],95%
same,pest or weed control at 500 g/ha,[15]; 500 g ai/ha,100%
same,pest or weed control at 31 g/ha,[16],100%
same,pest or weed control at 125 g/ha,[16],100%
same,pest or weed control at 500 g/ha,[16]; 500 g ai/ha,100%
same,pest or weed control at 250 g/ha,[17],0%
same,plant injury at 250 g/ha,[18],0%
same,pest or weed control at 250 g/ha,[19],85%
same,pest or weed control at 250 g/ha,[20],100%
